From ChEMBL document CHEMBL5244223, “l,8-Naphthalimide based DNA intercalators and anticancer agents. A systematic review from 2007 to 2017” (Eur J Med Chem, 2018)
Values after ≈ are worked out from the molar mass of the structure shown. Values belong to the molecule of their own block, whether it stands above or below them.

How the values were obtained:
Calf thymus DNA [1] = experiment: Binding affinity to calf thymus DNA assessed as binding constant incubated for 10 mins by isothermal titration calorimetric assay; format: nucleic-acid assay; conditions: Bos taurus
SMMC-7721 = experiment: Cytotoxicity against human SMMC-7721 cells assessed as inhibition of cell growth incubated for 48 hrs by MTT assay; format: functional, cell-based; conditions: SMMC-7721, 48 h
K562 [2] = experiment: Cytotoxicity against human K562 cells assessed as inhibition of cell growth incubated for 48 hrs by MTT assay; format: functional, cell-based; conditions: K562, 48 h
HCT-116 [3] = experiment: Cytotoxicity against human HCT-116 cells assessed as inhibition of cell growth incubated for 48 hrs by MTT assay; format: functional, cell-based; conditions: HCT-116, 48 h
Clupea harengus = experiment: Binding affinity to herring DNA assessed as binding constant incubated for 30 mins by fluorescence based EtBr-UV absorption spectral analysis
Pseudomonas aeruginosa = experiment: Antibacterial activity against Pseudomonas aeruginosa MTCC 741 assessed as inhibition of bacterial growth by agar well diffusion assay; format: functional
Calf thymus DNA [4] = experiment: Binding affinity to calf thymus DNA assessed as DNA intercalation by measuring change in melting temperature by thermal denaturation assay; format: nucleic-acid assay; conditions: Bos taurus
[5] = system: Staphylococcus epidermidis; experiment: Antibacterial activity against Staphylococcus epidermidis MTCC 435 assessed as inhibition of bacterial growth by agar well diffusion assay; format: functional
Escherichia coli = experiment: Antibacterial activity against Escherichia coli MTCC 443 assessed as inhibition of bacterial growth by agar well diffusion assay; format: functional
COLO 205 = experiment: Cytotoxicity against human COLO 205 cells assessed as inhibition of cell growth incubated for 72 hrs by SRB assay; format: functional, cell-based; conditions: COLO 205, 72 h, pooled result: one value given for 7 cell lines, strains, targets or settings
Staphylococcus aureus = experiment: Antibacterial activity against Staphylococcus aureus MTCC 96 assessed as inhibition of bacterial growth by agar well diffusion assay; format: functional
Calf thymus DNA [6] = experiment: Binding affinity to calf thymus DNA assessed as binding constant by fluorescence based EtBr-displacement based UV-Vis spectroscopic analysis; format: nucleic-acid assay; conditions: Bos taurus
Homo sapiens [7] = organism: Homo sapiens; experiment: Binding affinity to double stranded [poly(dA-dT)2] DNA (unknown origin) assessed as change in melting temperature by thermal denaturation based spectrometer analysis
Homo sapiens [8] = organism: Homo sapiens; experiment: Binding affinity to double stranded [poly(dA-dT)2] DNA (unknown origin) assessed as change in melting temperature in presence of NaCl by thermal denaturation based spectrometer analysis
A2780 = experiment: Cytotoxicity against human A2780 cells assessed as inhibition of cell growth incubated for 72 hrs by SRB assay; format: functional, cell-based; conditions: A2780, 72 h
HCT-116 [9] = experiment: Cytotoxicity against human HCT-116 cells assessed as inhibition of cell growth incubated for 24 hrs by XTT assay; format: functional, cell-based; conditions: HCT-116, 24 h
Mus musculus [10] = experiment: Antitumor activity against mouse H22 cells xenografted in Kunming mouse assessed as decrease in tumor growth at 5 mg/kg administered as single injection via caudal vein for 7 consecutive days; format: functional; set-up: scale not given: the % may be the effect or the level left
PANC-1 = experiment: Cytotoxicity against human PANC-1 cells assessed as inhibition of cell growth incubated for 24 hrs by XTT assay; format: functional, cell-based; conditions: PANC-1, 24 h
Mus musculus [11] = experiment: Antitumor activity against mouse H22 cells xenografted in Kunming mouse assessed as decrease in tumor growth at 1 mg/kg administered as single injection via caudal vein for 7 consecutive days; format: functional; set-up: scale not given: the % may be the effect or the level left
MDA-MB-231 = experiment: Antiproliferative activity against human MDA-MB-231 cells assessed as inhibition of cell proliferation incubated for 48 hrs by MTT assay; format: functional, cell-based; conditions: MDA-MB-231, 48 h
HCT-116 [12] = experiment: Antiproliferative activity against human HCT-116 cells assessed as inhibition of cell proliferation incubated for 48 hrs by MTT assay; format: functional, cell-based; conditions: HCT-116, 48 h
K562 [13] = experiment: Antiproliferative activity against human K562 cells assessed as inhibition of cell proliferation incubated for 48 hrs by MTT assay; format: functional, cell-based; conditions: K562, 48 h
HepG2 = experiment: Antiproliferative activity against human HepG2 cells assessed as inhibition of cell proliferation incubated for 48 hrs by MTT assay; format: functional, cell-based; conditions: HepG2, 48 h
HeLa = experiment: Antiproliferative activity against human HeLa cells assessed as inhibition of cell proliferation by MTT assay; format: functional, cell-based
P388 = experiment: Antiproliferative activity against mouse P388 cells assessed as inhibition of cell proliferation by MTT assay; format: functional, cell-based
A-375 = experiment: Antiproliferative activity against human A-375 cells assessed as inhibition of cell proliferation by MTT assay; format: functional, cell-based

K (Calf thymus DNA [1]): 9.53 10^6/M
SMILES: C[n+]1ccn(CCN2C(=O)c3cc(Br)c4c5c(cc(Br)c(c35)C2=O)C(=O)N(CCn2cc[n+](C)c2)C4=O)c1

Kb (Clupea harengus): 6.06 10^3/M
SMILES: NCCCCNCCCN1C(=O)c2cccc3cccc(c23)C1=O
IC50 (SMMC-7721): 5.45 µM
IC50 (K562 [2]): 5.45 µM
IC50 (HCT-116 [3]): 5.45 µM

MIC (Pseudomonas aeruginosa): 18.8 µg/mL (≈ 38 µM)
ΔTm (Calf thymus DNA [4]): 3.8 °C
MIC [5]: 18.8 µg/mL (≈ 38 µM)
MIC (Escherichia coli): 18.8 µg/mL (≈ 38 µM)
MIC (Staphylococcus aureus): 18.8 µg/mL (≈ 38 µM)
SMILES: O=C1c2cccc3cccc(c23)C(=O)N1c1nc(-c2cc3cc(Cl)cc(Cl)c3oc2=O)cs1
IC50 (COLO 205): 0.19 µM

K (Calf thymus DNA [6]): 6.5 10^6/M
ΔTm (Homo sapiens [7]): 23 °C
ΔTm (Homo sapiens [8]): 11 °C
SMILES: O=C1c2cccc3c([N+](=O)[O-])ccc(c23)C(=O)N1c1cccc(-c2cc[n+]3c(c2)-c2cccc[n+]2CC3)c1

MIC (Pseudomonas aeruginosa): 18.8 µg/mL (≈ 24 µM)
ΔTm (Calf thymus DNA [4]): 0.1 °C
MIC [5]: 18.8 µg/mL (≈ 24 µM)
MIC (Escherichia coli): 18.8 µg/mL (≈ 24 µM)
MIC (Staphylococcus aureus): 18.8 µg/mL (≈ 24 µM)
SMILES: COc1cccc2cc(-c3csc(N4C(=O)c5ccc6c7c(ccc(c57)C4=O)C(=O)N(c4nc(-c5cc7cccc(OC)c7oc5=O)cs4)C6=O)n3)c(=O)oc12
IC50 (A2780): < 0.1 µM

SMILES: CN(C)CCN1C(=O)c2cccc3cc(N)cc(c23)C1=O [AMONAFIDE]
IC50 (HCT-116 [9]): 2.7 µM
Activity (Mus musculus [10]): 43.73%
IC50 (PANC-1): 2.7 µM

IC50 (MDA-MB-231): 2.86 µM
IC50 (HCT-116 [12]): 2.86 µM
IC50 (K562 [13]): 2.86 µM
IC50 (HepG2): 2.86 µM
SMILES: Cl.Cl.Cl.Cl.NCCCNCCCCNCCCNCC(=O)NCCCN1C(=O)c2cccc3cccc(c23)C1=O
Activity (Mus musculus [11]): 70.92%

IC50 (HeLa): 6.7 µM
IC50 (P388): 6.7 µM
IC50 (A-375): 6.7 µM
SMILES: CN(C)CCNc1ccc2c3c(cccc13)C(=O)N(c1ccc(S(=O)(=O)NC(=O)c3ccc(N4CCN(CC=C(c5ccccc5)c5ccccc5)CC4)cc3)cc1)C2=O
